# In patent publication US10934274B2, “Quinoline derivatives as TAM RTK inhibitors” (Qurient Co., Ltd., priority 2015, dated 2021):
# Key:
# [1] = molecular target: T1, Axl (Homo sapiens, UniProt P30530); assay: LanthaScreen Eu kinase binding assay, Axl; conditions: Tracer 236
# T1 construct: purchased Life Technologies
# T1 sequence (P30530 26-894): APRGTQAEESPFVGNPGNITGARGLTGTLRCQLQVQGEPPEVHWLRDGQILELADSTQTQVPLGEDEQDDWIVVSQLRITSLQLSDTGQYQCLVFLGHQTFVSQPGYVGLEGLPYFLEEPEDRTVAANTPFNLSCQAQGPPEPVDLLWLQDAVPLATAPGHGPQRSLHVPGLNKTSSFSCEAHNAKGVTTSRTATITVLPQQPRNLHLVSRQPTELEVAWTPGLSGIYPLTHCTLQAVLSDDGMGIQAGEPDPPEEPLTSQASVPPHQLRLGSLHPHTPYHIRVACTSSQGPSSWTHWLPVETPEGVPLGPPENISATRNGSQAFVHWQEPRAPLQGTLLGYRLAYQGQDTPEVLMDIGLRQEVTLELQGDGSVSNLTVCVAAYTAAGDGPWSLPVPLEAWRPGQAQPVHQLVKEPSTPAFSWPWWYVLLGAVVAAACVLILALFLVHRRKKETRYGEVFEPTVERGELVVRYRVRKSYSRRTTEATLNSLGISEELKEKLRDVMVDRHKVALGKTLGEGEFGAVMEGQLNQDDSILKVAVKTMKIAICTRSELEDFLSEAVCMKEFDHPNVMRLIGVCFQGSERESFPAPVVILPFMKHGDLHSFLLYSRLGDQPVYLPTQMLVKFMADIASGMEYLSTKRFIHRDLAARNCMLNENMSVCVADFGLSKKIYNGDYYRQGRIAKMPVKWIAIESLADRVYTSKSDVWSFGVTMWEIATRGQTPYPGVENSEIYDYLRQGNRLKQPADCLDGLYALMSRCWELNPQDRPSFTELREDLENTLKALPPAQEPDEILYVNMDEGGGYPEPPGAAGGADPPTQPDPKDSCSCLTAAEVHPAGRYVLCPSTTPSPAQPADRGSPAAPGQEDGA
# [2] = molecular target: T2, TYRO3 (Homo sapiens, UniProt Q06418); assay: LanthaScreen Eu kinase binding assay, TYRO3; conditions: Tracer 236
# T2 construct: purchased Life Technologies
# T2 sequence (Q06418 41-890): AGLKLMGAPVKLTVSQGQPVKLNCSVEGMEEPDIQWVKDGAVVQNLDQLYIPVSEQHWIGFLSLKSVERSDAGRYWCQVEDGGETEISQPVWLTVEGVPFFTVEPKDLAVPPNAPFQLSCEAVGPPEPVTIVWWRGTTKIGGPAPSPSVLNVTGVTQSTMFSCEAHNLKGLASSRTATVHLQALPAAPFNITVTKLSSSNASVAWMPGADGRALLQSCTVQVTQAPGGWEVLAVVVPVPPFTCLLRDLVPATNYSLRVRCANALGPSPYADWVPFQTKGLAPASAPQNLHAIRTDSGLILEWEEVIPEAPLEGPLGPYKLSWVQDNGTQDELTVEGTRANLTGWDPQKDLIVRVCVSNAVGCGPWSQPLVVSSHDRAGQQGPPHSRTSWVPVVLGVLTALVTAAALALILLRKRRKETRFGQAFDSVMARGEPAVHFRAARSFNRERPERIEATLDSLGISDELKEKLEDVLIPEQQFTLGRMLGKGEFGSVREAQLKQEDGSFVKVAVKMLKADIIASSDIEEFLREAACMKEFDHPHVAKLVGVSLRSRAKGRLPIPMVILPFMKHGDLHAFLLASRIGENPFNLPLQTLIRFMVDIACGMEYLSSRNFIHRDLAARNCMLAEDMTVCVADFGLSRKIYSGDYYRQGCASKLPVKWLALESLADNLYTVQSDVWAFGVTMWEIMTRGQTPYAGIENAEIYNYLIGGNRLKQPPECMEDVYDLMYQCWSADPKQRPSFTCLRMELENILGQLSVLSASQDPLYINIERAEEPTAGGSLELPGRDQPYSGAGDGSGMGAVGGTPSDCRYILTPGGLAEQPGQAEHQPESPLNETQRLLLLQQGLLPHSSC
Structure (SMILES),Kd [1],Kd [2]
CCOc1cn(-c2ccnc(O)c2)nc1C(=O)Nc1ccc(Oc2ccnc3cc(OC)c(OC)cc23)cn1 [Compound 7],≥ 1000 nM,≥ 1000 nM
CCOc1cn(-c2ccc(F)cc2F)nc1C(=O)Nc1ccc(Oc2ccnc3cc(OC)c(OC)cc23)cn1 [Compound 107],< 100 nM,< 100 nM
CCOc1cn(-c2ccc(Cl)cc2Cl)nc1C(=O)Nc1ccc(Oc2ccnc3cc(OC)c(OC)cc23)cn1 [Compound 108],< 100 nM,< 100 nM
CCOc1cnn(-c2ccc(C(F)(F)F)cc2C(F)(F)F)c1C(=O)Nc1ccc(Oc2ccnc3cc(OC)c(OC)cc23)cn1 [Compound 110],< 100 nM,100 to 1000 nM
CCOc1cn(-c2ccc(Cl)cc2CC)nc1C(=O)Nc1ccc(Oc2ccnc3cc(OC)c(OC)cc23)cn1 [Compound 111],< 100 nM,< 100 nM
CCOc1cn(-c2ccc(F)cc2CC)nc1C(=O)Nc1ccc(Oc2ccnc3cc(OC)c(OC)cc23)cn1 [Compound 112],< 100 nM,< 100 nM
CCOc1cn(-c2ccc(OC(F)(F)F)cc2C)nc1C(=O)Nc1ccc(Oc2ccnc3cc(OC)c(OC)cc23)cn1 [Compound 113],< 100 nM,100 to 1000 nM
CCOc1cn(-c2ccc(C(F)(F)F)cc2F)nc1C(=O)Nc1ccc(Oc2ccnc3cc(OC)c(OC)cc23)cn1 [Compound 114],< 100 nM,≥ 1000 nM
CCOc1cn(-c2ccc(OC(F)(F)F)cc2Cl)nc1C(=O)Nc1ccc(Oc2ccnc3cc(OC)c(OC)cc23)cn1 [Compound 115],< 100 nM,≥ 1000 nM
CCOc1cn(-c2ccc(C(C)C)cc2)nc1C(=O)Nc1ccc(Oc2ccnc3cc(OC)c(OC)cc23)cn1 [Compound 116],< 100 nM,≥ 1000 nM
CCOc1cn(-c2c(C)cc(C)cc2C)nc1C(=O)Nc1ccc(Oc2ccnc3cc(OC)c(OC)cc23)cn1 [Compound 117],< 100 nM,100 to 1000 nM
CCOc1cn(-c2ccc(OC(F)(F)F)cc2F)nc1C(=O)Nc1ccc(Oc2ccnc3cc(OC)c(OC)cc23)cn1 [Compound 120],< 100 nM,≥ 1000 nM
CCOc1cn(-c2ccc(F)c(CN(C)C)c2)nc1C(=O)Nc1ccc(Oc2ccnc3cc(OC)c(OC)cc23)cn1 [Compound 124],< 100 nM,< 100 nM
CCOc1cn(-c2ccc(F)cc2C(C)C)nc1C(=O)Nc1ccc(Oc2ccnc3cc(OC)c(OC)cc23)cn1 [Compound 125],< 100 nM,< 100 nM
CCOc1cn(-c2ccc(Cl)c(CN(C)C)c2)nc1C(=O)Nc1ccc(Oc2ccnc3cc(OC)c(OC)cc23)cn1 [Compound 126],< 100 nM,≥ 1000 nM
CCOc1cn(-c2ccc(C(C)C)cc2F)nc1C(=O)Nc1ccc(Oc2ccnc3cc(OC)c(OC)cc23)cn1 [Compound 127],< 100 nM,≥ 1000 nM
CCOc1cn(-c2ccc(F)c(CO)c2)nc1C(=O)Nc1ccc(Oc2ccnc3cc(OC)c(OC)cc23)cn1 [Compound 128],< 100 nM,< 100 nM
CCOc1cn(-c2ccc(Cl)c(C(=O)N(C)C)c2)nc1C(=O)Nc1ccc(Oc2ccnc3cc(OC)c(OC)cc23)cn1 [Compound 129],< 100 nM,≥ 1000 nM
CCOc1cnn(-c2ccc(Cl)c(CN(C)C)c2)c1C(=O)Nc1ccc(Oc2ccnc3cc(OC)c(OC)cc23)cn1 [Compound 130],< 100 nM,100 to 1000 nM
CCOc1cn(-c2c(C)ccnc2C)nc1C(=O)Nc1ccc(Oc2ccnc3cc(OC)c(OC)cc23)cn1 [Compound 132],< 100 nM,< 100 nM
CCOc1cn(-c2ncc(Cl)cc2C#N)nc1C(=O)Nc1ccc(Oc2ccnc3cc(OC)c(OC)cc23)cn1 [Compound 133],< 100 nM,< 100 nM
CCOc1cn(-c2cnc(N)nc2)nc1C(=O)Nc1ccc(Oc2ccnc3cc(OC)c(OC)cc23)c(F)c1 [Compound 141],< 100 nM,< 100 nM
CCOc1cn(-c2cnc(OC)nc2)nc1C(=O)Nc1ccc(Oc2ccnc3cc(OC)c(OC)cc23)cn1 [Compound 148],< 100 nM,≥ 1000 nM
CCOc1cn(-c2cncnc2C)nc1C(=O)Nc1ccc(Oc2ccnc3cc(OC)c(OC)cc23)cn1 [Compound 149],< 100 nM,< 100 nM
CCOc1cn(-c2cnccc2C)nc1C(=O)Nc1ccc(Oc2ccnc3cc(OC)c(OC)cc23)cc1F [Compound 151],< 100 nM,< 100 nM
CCOc1cn(-c2cnc(C)cn2)nc1C(=O)Nc1ccc(Oc2ccnc3cc(OC)c(OC)cc23)cn1 [Compound 160],< 100 nM,≥ 1000 nM
CCOc1cn(-c2noc(C)n2)nc1C(=O)Nc1ccc(Oc2ccnc3cc(OC)c(OC)cc23)cn1 [Compound 161],< 100 nM,< 100 nM

# Continued, values first:
Kd [1],Kd [2],Structure (SMILES)
< 100 nM,< 100 nM,CCOc1cn(-c2ccc(N)nc2)nc1C(=O)Nc1ccc(Oc2ccnc3cc(OC)c(OC)cc23)cn1 [Compound 6]
< 100 nM,100 to 1000 nM,CCOc1cn(-c2cn[nH]c2)nc1C(=O)Nc1ccc(Oc2ccnc3cc(OC)c(OC)cc23)cn1 [Compound 8]
< 100 nM,< 100 nM,CCOc1cn(-c2cnc(N)nc2)nc1C(=O)Nc1ccc(Oc2ccnc3cc(OC)c(OC)cc23)cn1 [Compound 10]
< 100 nM,100 to 1000 nM,CCOc1cn(-c2cncn2C)nc1C(=O)Nc1ccc(Oc2ccnc3cc(OC)c(OC)cc23)cn1 [Compound 11]
< 100 nM,< 100 nM,CCOc1cn(-c2nccs2)nc1C(=O)Nc1ccc(Oc2ccnc3cc(OC)c(OC)cc23)cn1 [Compound 12]
< 100 nM,< 100 nM,CCOc1cn(-c2cscn2)nc1C(=O)Nc1ccc(Oc2ccnc3cc(OC)c(OC)cc23)cn1 [Compound 13]
< 100 nM,< 100 nM,CCOc1cn(-c2cncs2)nc1C(=O)Nc1ccc(Oc2ccnc3cc(OC)c(OC)cc23)cn1 [Compound 14]
< 100 nM,100 to 1000 nM,CCOc1cnn(-c2cncs2)c1C(=O)Nc1ccc(Oc2ccnc3cc(OC)c(OC)cc23)cn1 [Compound 16]
< 100 nM,≥ 1000 nM,CCOc1cn(-c2cnc(CO)nc2)nc1C(=O)Nc1ccc(Oc2ccnc3cc(OC)c(OC)cc23)cn1 [Compound 96]
< 100 nM,≥ 1000 nM,CCOc1cn(-c2ccc(F)cc2C)nc1C(=O)Nc1ccc(Oc2ccnc3cc(OC)c(OC)cc23)nn1 [Compound 97]
< 100 nM,100 to 1000 nM,CCOc1cn(-c2ccc(C(F)(F)F)cc2C)nc1C(=O)Nc1ccc(Oc2ccnc3cc(OC)c(OC)cc23)cn1 [Compound 99]
< 100 nM,100 to 1000 nM,CCOc1cn(-c2ccc(C)cc2F)nc1C(=O)Nc1ccc(Oc2ccnc3cc(OC)c(OC)cc23)cn1 [Compound 100]
< 100 nM,100 to 1000 nM,CCOc1cn(-c2ccc(Cl)cc2C(F)(F)F)nc1C(=O)Nc1ccc(Oc2ccnc3cc(OC)c(OC)cc23)cn1 [Compound 101]
< 100 nM,100 to 1000 nM,CCOc1cnn(-c2ccc(C(F)(F)F)cc2C)c1C(=O)Nc1ccc(Oc2ccnc3cc(OC)c(OC)cc23)cn1 [Compound 102]
< 100 nM,< 100 nM,CCOc1cn(-c2ccc(F)cc2C(F)(F)F)nc1C(=O)Nc1ccc(Oc2ccnc3cc(OC)c(OC)cc23)cn1 [Compound 104]
< 100 nM,100 to 1000 nM,CCOc1cn(-c2ccc(C(F)(F)F)cc2C(F)(F)F)nc1C(=O)Nc1ccc(Oc2ccnc3cc(OC)c(OC)cc23)cn1 [Compound 105]
< 100 nM,100 to 1000 nM,CCOc1cn(-c2ccc(Cl)cc2F)nc1C(=O)Nc1ccc(Oc2ccnc3cc(OC)c(OC)cc23)cn1 [Compound 106]
